Structures can show the parent of a compound that is named as a salt. Where two headings read alike, the source gives them in different places.
How the values were obtained:
[1] = target: T1, SARS-CoV-2 PLpro (nsp3 1564–1878) (Severe acute respiratory syndrome coronavirus 2, UniProt P0DTD1); assay: biochemical; design: FRET-quenched peptide (Pro3) cleavage by PLpro, 10 min pre-incubation, slope over 20 min, normalised to no-compound control; conditions: low concentration screen, read-out: % of control remaining
[2] = target: T1, SARS-CoV-2 PLpro (nsp3 1564–1878); assay: biochemical; design: FRET-quenched peptide (Pro3) cleavage by PLpro, 10 min pre-incubation, slope over 20 min, normalised to no-compound control; conditions: high concentration screen, read-out: % of control remaining

`O=C(O)c1cc(=O)cc(C(=O)O)o1` [Chelidonic acid] gave a remaining activity at 1.25 µM ([1]; Well no.=6682) of 102% and a remaining activity at 3.75 µM ([2]; Well no.=6682) of 102%.

With `C[C@H](CCC(=O)O)[C@H]1CC[C@H]2[C@@H]3[C@H](O)C[C@@H]4C[C@H](O)CC[C@]4(C)[C@H]3CC[C@]12C` [Chenodeoxycholic Acid] the remaining activity at 1.25 µM ([1]; Well no.=6483) was 99.2%, the remaining activity at 1.25 µM ([1]; Well no.=8382) was 96.1% and the remaining activity at 3.75 µM ([2]; Well no.=6483) was 101%. For the same molecule, the remaining activity at 3.75 µM ([2]; Well no.=8382) was 88.2%.

In the case of `Nc1nc(O)c(C2=C3C(=Nc4ccccc43)C(=O)NCC2)[nH]1` [Chk2 Inhibitor], the remaining activity at 1.25 µM ([1]; Well no.=2389) is reported as 103% and the remaining activity at 3.75 µM ([2]; Well no.=2389) is reported as 103%.

In the case of `O=C(O)CCCc1ccc(N(CCCl)CCCl)cc1` [Chlorambucil], the remaining activity at 1.25 µM ([1]; Well no.=327) is reported as 96.4%, the remaining activity at 1.25 µM ([1]; Well no.=2227) is reported as 99.2% and the remaining activity at 3.75 µM ([2]; Well no.=327) is reported as 98.4%. For the same molecule, the remaining activity at 3.75 µM ([2]; Well no.=2227) was 98.3%.

`O=C(N[C@H](CO)[C@H](O)c1ccc([N+](=O)[O-])cc1)C(Cl)Cl` [Chloramphenicol] gave a remaining activity at 1.25 µM ([1]; Well no.=2223) of 96.9% and a remaining activity at 3.75 µM ([2]; Well no.=2223) of 96.6%.

`CC(=O)O[C@]1(C(C)=O)CC[C@H]2[C@@H]3C=C(Cl)C4=CC(=O)CC[C@]4(C)[C@H]3CC[C@@]21C` [Chlormadinone Acetate] gave a remaining activity at 1.25 µM ([1]; Well no.=2225) of 97.4% and a remaining activity at 3.75 µM ([2]; Well no.=2225) of 96.7%.

With `CN1C(=O)CCS(=O)(=O)C1c1ccc(Cl)cc1` (stereo not drawn) [Chlormezanone] the remaining activity at 1.25 µM ([1]; Well no.=679) was 99% and the remaining activity at 3.75 µM ([2]; Well no.=679) was 96.9%.

For `CNC(=O)[C@H]1O[C@@H](n2cnc3c(NCc4cccc(I)c4)nc(Cl)nc32)[C@H](O)[C@@H]1O` [Chloro-IB-MECA], the remaining activity at 1.25 µM ([1]; Well no.=395) was 95.2% and the remaining activity at 3.75 µM ([2]; Well no.=395) was 95.2%.

Work on `O=C(/C=C/c1ccc(O)c(O)c1)O[C@@H]1C[C@](O)(C(=O)O)C[C@@H](O)[C@H]1O` [Chlorogenic acid] yielded a remaining activity at 1.25 µM ([1]; Well no.=3510) of 103% and a remaining activity at 3.75 µM ([2]; Well no.=3510) of 103%.

Work on `NS(=O)(=O)c1cc2c(cc1Cl)N=CNS2(=O)=O` [Chlorothiazide] yielded a remaining activity at 1.25 µM ([1]; Well no.=82) of 99.4%, a remaining activity at 1.25 µM ([1]; Well no.=7460) of 96% and a remaining activity at 3.75 µM ([2]; Well no.=82) of 100%. The remaining activity at 3.75 µM ([2]; Well no.=7460) was 102%.

With `Oc1c(Cl)cc(Cl)c2cccnc12` [Chloroxine] the remaining activity at 1.25 µM ([1]; Well no.=5266) was 91.9% and the remaining activity at 3.75 µM ([2]; Well no.=5266) was 97.2%.

With `CN(C)CCC(c1ccc(Cl)cc1)c1ccccn1` (stereo not drawn) [Chlorpheniramine (maleate)] the remaining activity at 1.25 µM ([1]; Well no.=7525) was 103% and the remaining activity at 3.75 µM ([2]; Well no.=7525) was 101%.

With `CN(C)CCC(c1ccc(Cl)cc1)c1ccccn1` (stereo not drawn) [Chlorpheniramine] the remaining activity at 1.25 µM ([1]; Well no.=2229) was 93.7% and the remaining activity at 3.75 µM ([2]; Well no.=2229) was 95.1%.

In the case of `CN(C)CCOC(C)(c1ccccc1)c1ccc(Cl)cc1` (stereo not drawn) [Chlorphenoxamine], the remaining activity at 1.25 µM ([1]; Well no.=6219) is reported as 102% and the remaining activity at 3.75 µM ([2]; Well no.=6219) is reported as 100%.

Work on `CN(C)CCCN1c2ccccc2Sc2ccc(Cl)cc21` [Chlorpromazine (hydrochloride)] yielded a remaining activity at 1.25 µM ([1]; Well no.=6227) of 95.8% and a remaining activity at 3.75 µM ([2]; Well no.=6227) of 96.3%.

In the case of `CN(C)CCCN1c2ccccc2Sc2ccc(Cl)cc21` [Chlorpromazine hydrochloride], the remaining activity at 1.25 µM ([1]; Well no.=44) is reported as 98.8% and the remaining activity at 3.75 µM ([2]; Well no.=44) is reported as 96.9%.

Work on `CN(C)CCCN1c2ccccc2Sc2ccc(Cl)cc21` [Chlorpromazine.HCl] yielded a remaining activity at 1.25 µM ([1]; Well no.=1596) of 104% and a remaining activity at 3.75 µM ([2]; Well no.=1596) of 103%.

Work on `CCCNC(=O)NS(=O)(=O)c1ccc(Cl)cc1` [Chlorpropamide] yielded a remaining activity at 1.25 µM ([1]; Well no.=331) of 96.9% and a remaining activity at 3.75 µM ([2]; Well no.=331) of 97.8%.

`CN(C)CC/C=C1/c2ccccc2Sc2ccc(Cl)cc21` [Chlorprothixene hydrochloride] gave a remaining activity at 1.25 µM ([1]; Well no.=45) of 89.3% and a remaining activity at 3.75 µM ([2]; Well no.=45) of 90.5%.

Molecule `CN(C)CC/C=C1/c2ccccc2Sc2ccc(Cl)cc21` [Chlorprothixene] has a remaining activity at 1.25 µM ([1]; Well no.=5345) of 97.4%, a remaining activity at 1.25 µM ([1]; Well no.=6221) of 104% and a remaining activity at 3.75 µM ([2]; Well no.=5345) of 93.5%. The remaining activity at 3.75 µM ([2]; Well no.=6221) was 99.3%.

`C[C@H](CCC(=O)O)[C@H]1CC[C@H]2[C@@H]3[C@H](O)C[C@@H]4C[C@H](O)CC[C@]4(C)[C@H]3C[C@H](O)[C@]12C` [Cholic acid] gave a remaining activity at 1.25 µM ([1]; Well no.=6201) of 105%, a remaining activity at 1.25 µM ([1]; Well no.=8202) of 96.6% and a remaining activity at 3.75 µM ([2]; Well no.=6201) of 105%. For the same molecule, the remaining activity at 3.75 µM ([2]; Well no.=8202) was 94.8%.

For `C[N+](C)(C)CCO` [Choline bromide], the remaining activity at 1.25 µM ([1]; Well no.=93) was 93.4% and the remaining activity at 3.75 µM ([2]; Well no.=93) was 97%.

`CO[C@@H]1[C@H](O)C[C@@H](O[C@@H]2C[C@H](Oc3cc4cc5c(c(O)c4c(O)c3C)C(=O)[C@@H](O[C@H]3C[C@@H](O[C@H]4C[C@@H](O[C@H]6C[C@](C)(O)[C@@H](OC(C)=O)[C@H](C)O6)[C@H](O)[C@@H](C)O4)[C@H](O)[C@@H](C)O3)[C@H]([C@H](OC)C(=O)[C@@H](O)[C@@H](C)O)C5)O[C@H](C)[C@@H]2OC(C)=O)O[C@@H]1C` [Chromomycin A3] was tested, and the remaining activity at 1.25 µM ([1]; Well no.=3579) was 103% and the remaining activity at 3.75 µM ([2]; Well no.=3579) was 107%.

`O=c1cc(-c2ccccc2)oc2cc(O)cc(O)c12` [Chrysine] gave a remaining activity at 1.25 µM ([1]; Well no.=3276) of 101% and a remaining activity at 3.75 µM ([2]; Well no.=3276) of 100%.

Molecule `CC(C)C(=O)OCC(=O)[C@@]12O[C@H](C3CCCCC3)O[C@@H]1C[C@H]1[C@@H]3CCC4=CC(=O)C=C[C@]4(C)[C@H]3[C@@H](O)C[C@@]12C` [Ciclesonide] has a remaining activity at 1.25 µM ([1]; Well no.=7323) of 95.9% and a remaining activity at 3.75 µM ([2]; Well no.=7323) of 97.2%.

`Nc1ccn(C[C@@H](CO)OCP(=O)(O)O)c(=O)n1` [Cidofovir (Vistide)] gave a remaining activity at 1.25 µM ([1]; Well no.=5251) of 98.3% and a remaining activity at 3.75 µM ([2]; Well no.=5251) of 101%.

With `CC1(COc2ccc(CC3SC(=O)NC3=O)cc2)CCCCC1` (stereo not drawn) [Ciglitazone] the remaining activity at 1.25 µM ([1]; Well no.=4236) was 110% and the remaining activity at 3.75 µM ([2]; Well no.=4236) was 107%.

Work on `CC1(COc2ccc(CC3SC(=O)NC3=O)cc2)CCCCC1` (stereo not drawn) [Ciglitizone] yielded a remaining activity at 1.25 µM ([1]; Well no.=222) of 99% and a remaining activity at 3.75 µM ([2]; Well no.=222) of 97.7%.

Molecule `CC1(C)C[C@@H]1C(=O)N/C(=C\CCCCSC[C@H](N)C(=O)O)C(=O)O` [Cilastatin] has a remaining activity at 1.25 µM ([1]; Well no.=2198) of 94.3% and a remaining activity at 3.75 µM ([2]; Well no.=2198) of 95.6%.

With `CC(C)[C@H]1C(=O)N[C@@H](CCCNC(=N)N)C(=O)NCC(=O)N[C@@H](CC(=O)O)C(=O)N[C@H](Cc2ccccc2)C(=O)N1C` [Cilengitide (EMD 121974, NSC 707544)] the remaining activity at 1.25 µM ([1]; Well no.=5174) was 94.8% and the remaining activity at 3.75 µM ([2]; Well no.=5174) was 96.2%.

In the case of `COCCOC(=O)C1=C(C)NC(C)=C(C(=O)OC/C=C/c2ccccc2)C1c1cccc([N+](=O)[O-])c1` (stereo not drawn) [Cilnidipine], the remaining activity at 1.25 µM ([1]; Well no.=1759) is reported as 98.8% and the remaining activity at 3.75 µM ([2]; Well no.=1759) is reported as 98.3%.
